According to ChEMBL document CHEMBL1153623, “Synthesis and bioactivity of substituted indan-1-ylideneaminoguanidine derivatives” (Eur J Med Chem, 2009):
pIC50: −log10 of the molar value.

Experiments:
[1] = target: Sodium/hydrogen exchanger 1 (Rattus norvegicus, UniProt P26431); experiment: Inhibition of NHE1 in Sprague-Dawley rat platelet-rich plasma by optical swelling assay
Rattus norvegicus [2] = experiment: Cardioprotective activity against ischemic Sprague-Dawley rat heart assessed as reduction in infarct size at 1 mg/kg, iv treated 5 mins before left anterior descending coronary artery occlusion measured after 2 hrs of reperfusion by Evans staining; format: functional; parameters: scale not given: the % may be the effect or the level left
Rattus norvegicus [3] = experiment: Cardioprotective activity against ischemic Sprague-Dawley rat heart assessed as serum creatine kinase level at 1 mg/kg, iv treated 5 mins before left anterior descending coronary artery occlusion measured after 2 hrs of reperfusion by Evans staining; format: functional
[4] = target: Sodium/hydrogen exchanger 1 (Rattus norvegicus) (UniProt P26431); experiment: Ratio of cariporide IC50 to compound IC50 for NHE1 in Sprague-Dawley rat platelet-rich plasma by optical swelling assay
Rattus norvegicus [5] = experiment: Cardioprotective activity against ischemic Sprague-Dawley rat heart assessed as reduction in infarct size at 0.5 mg/kg, iv treated 5 mins before left anterior descending coronary artery occlusion measured after 2 hrs of reperfusion by Evans staining; format: functional; parameters: scale not given: the % may be the effect or the level left
Rattus norvegicus [6] = experiment: Cardioprotective activity against ischemic Sprague-Dawley rat heart assessed as reduction in infarct size at 0.25 mg/kg, iv treated 5 mins before left anterior descending coronary artery occlusion measured after 2 hrs of reperfusion by Evans staining; format: functional; parameters: scale not given: the % may be the effect or the level left
Rattus norvegicus [7] = experiment: Cardioprotective activity against ischemic Sprague-Dawley rat heart assessed as serum creatine kinase level at 0.5 mg/kg, iv treated 5 mins before left anterior descending coronary artery occlusion measured after 2 hrs of reperfusion by Evans staining; format: functional
Rattus norvegicus [8] = experiment: Cardioprotective activity against ischemic Sprague-Dawley rat heart assessed as serum creatine kinase level at 0.25 mg/kg, iv treated 5 mins before left anterior descending coronary artery occlusion measured after 2 hrs of reperfusion by Evans staining; format: functional

Sodium/hydrogen exchanger 1, sequence (P26431 whole entry, the tested form may be a part): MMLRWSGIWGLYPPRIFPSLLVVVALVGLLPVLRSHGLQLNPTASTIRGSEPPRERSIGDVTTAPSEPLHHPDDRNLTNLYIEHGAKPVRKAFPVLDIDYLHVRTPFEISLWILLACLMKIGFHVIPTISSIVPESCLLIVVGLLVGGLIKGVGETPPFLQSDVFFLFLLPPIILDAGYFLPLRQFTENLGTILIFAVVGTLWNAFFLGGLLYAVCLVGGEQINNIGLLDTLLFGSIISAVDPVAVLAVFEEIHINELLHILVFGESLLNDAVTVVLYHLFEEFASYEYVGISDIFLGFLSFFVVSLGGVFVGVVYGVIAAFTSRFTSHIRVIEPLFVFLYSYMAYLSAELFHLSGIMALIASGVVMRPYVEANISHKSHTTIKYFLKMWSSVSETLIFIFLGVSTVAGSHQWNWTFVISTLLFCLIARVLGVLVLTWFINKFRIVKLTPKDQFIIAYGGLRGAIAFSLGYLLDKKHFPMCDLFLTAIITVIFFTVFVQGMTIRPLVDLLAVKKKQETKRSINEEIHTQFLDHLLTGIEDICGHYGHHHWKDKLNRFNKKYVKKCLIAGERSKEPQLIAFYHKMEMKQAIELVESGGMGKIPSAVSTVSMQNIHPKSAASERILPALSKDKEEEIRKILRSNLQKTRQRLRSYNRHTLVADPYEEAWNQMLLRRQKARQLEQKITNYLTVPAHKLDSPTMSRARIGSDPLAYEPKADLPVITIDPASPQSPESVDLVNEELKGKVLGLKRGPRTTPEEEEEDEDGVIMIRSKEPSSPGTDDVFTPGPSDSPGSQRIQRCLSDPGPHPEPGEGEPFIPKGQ
Sodium/hydrogen exchanger 1 (Rattus norvegicus), sequence (P26431 whole entry, the tested form may be a part): as above

Row | SMILES | pIC50 [1] | also measured
1 | NC(N)=N/N=C1\c2cc(F)ccc2CC1Sc1nc2cc([N+](=O)[O-])ccc2[nH]1 (configuration not stated) | 7.42 | 
2 | NC(N)=N/N=C1\c2cc(Cl)ccc2CC1Sc1nc2ccccc2s1 (configuration not stated) | 7.46 | 
3 | COc1cc2c(c(OC)c1OC)CC(Sc1nc3ccccc3[nH]1)/C2=N/N=C(N)N (configuration not stated) | 7.97 | 
4 | NC(N)=N/N=C1\c2cc(Cl)ccc2CC1Sc1nc2cc([N+](=O)[O-])ccc2[nH]1 (configuration not stated) | 7.41 | 
5 | COc1ccc2[nH]c(SC3Cc4ccccc4/C3=N\N=C(N)N)nc2c1 (configuration not stated) | 7.77 | 
6 | NC(N)=N/N=C1\c2cc(Cl)cc(Cl)c2CC1Sc1nc2ccccc2[nH]1 (configuration not stated) | 6.18 | 
7 | NC(N)=N/N=C1\c2cccc(Cl)c2CC1Sc1nc2ccccc2s1 (configuration not stated) | 7.69 | 
8 | NC(N)=N/N=C1\c2cc(F)ccc2CC1Sc1nc2ccccc2s1 (configuration not stated) | 6.54 | 
9 | CC(C)c1ccc(C(=O)N=C(N)N)cc1S(C)(=O)=O [CARIPORIDE] |  | Activity (Rattus norvegicus [2]): 45.74%; Activity (Rattus norvegicus [3]): 3.53 U/ml
10 | NC(N)=N/N=C1\c2ccc(Cl)cc2CC1Sc1nc2ccccc2[nH]1 (configuration not stated) | 7.67 | 
11 | COc1cc2c(c(OC)c1OC)CC(Sc1nc3cc([N+](=O)[O-])ccc3[nH]1)/C2=N/N=C(N)N (configuration not stated) | 7.50 | 
12 | NC(N)=N/N=C1\c2ccc(Cl)cc2CC1Sc1nc2cc([N+](=O)[O-])ccc2[nH]1 (configuration not stated) | 7.91 | 
13 | NC(N)=N/N=C1\c2cc(Cl)ccc2CC1Sc1nc2ccccc2[nH]1 (configuration not stated) | 6.49 | 
14 | COc1ccc2[nH]c(SC3Cc4ccc(F)cc4/C3=N\N=C(N)N)nc2c1 (configuration not stated) | 7.59 | 
15 | Br.COc1ccc2[nH]c(SC3Cc4cc(Cl)ccc4/C3=N\N=C(N)N)nc2c1.Cl (configuration not stated) | 9.03 | Ratio IC50 [4]: 69; Activity (Rattus norvegicus [2]): 36.16%; Activity (Rattus norvegicus [5]): 40.87%; Activity (Rattus norvegicus [6]): 42.27%; Activity (Rattus norvegicus [3]): 2.82 U/ml; Activity (Rattus norvegicus [7]): 3.34 U/ml; Activity (Rattus norvegicus [8]): 3.72 U/ml
16 | NC(N)=N/N=C1\c2ccc([N+](=O)[O-])cc2CC1Sc1nc2ccccc2[nH]1 (configuration not stated) | 8.93 | 
17 | NC(N)=N/N=C1\c2ccc(Cl)cc2CC1Sc1nc2ccccc2s1 (configuration not stated) | 8.63 | 
18 | Cl.NC(N)=N/N=C1\c2ccccc2CC1Sc1nc2cc([N+](=O)[O-])ccc2[nH]1 (configuration not stated) | 8.76 | Activity (Rattus norvegicus [2]): 49.18%; Activity (Rattus norvegicus [3]): 4.12 U/ml
19 | Cl.Cl.NC(N)=N/N=C1\c2ccccc2CC1Sc1nc2ccccc2[nH]1 (configuration not stated) | 8.76 | Activity (Rattus norvegicus [2]): 42.89%; Activity (Rattus norvegicus [3]): 3.02 U/ml
20 | COc1cc2c(c(OC)c1OC)CC(Sc1nc3ccccc3s1)/C2=N/N=C(N)N (configuration not stated) | 8.70 | 
21 | COc1cc2c(cc1OC)/C(=N\N=C(N)N)C(Sc1nc3ccccc3[nH]1)C2 (configuration not stated) | 7.95 | 
22 | COc1ccc2c(c1)/C(=N\N=C(N)N)C(Sc1nc3ccccc3s1)C2.Cl (configuration not stated) | 8.72 | Activity (Rattus norvegicus [2]): 43.24%; Activity (Rattus norvegicus [3]): 3.38 U/ml
23 | COc1cc2c(cc1OC)/C(=N\N=C(N)N)C(Sc1nc3ccccc3s1)C2 (configuration not stated) | 8.61 | 
